Assay results reported in ChEMBL document CHEMBL5584208, “Conformationally constrained potent inhibitors for enhancer of zeste homolog 2 (EZH2)” (Bioorg Med Chem Lett, 2024).
Values belong to the compound of their own block, whether it stands above or below them.

Experiments:
[1] = system: WSUDLCL2; test: Antiproliferative activity against human WSUDLCL2 cells harboring EZH2 Y641F mutant; type: functional, cell-based
[2] = system: Pfeiffer; test: Antiproliferative activity against human Pfeiffer cells harboring EZH2 A677G mutant; type: functional, cell-based
[3] = system: KARPAS-422; test: Antiproliferative activity against human KARPAS-422 cells harboring EZH2 Y641N mutant; type: functional, cell-based
[4] = Half life in mouse at 10 mg/kg, po; type: ADME, organism-based; conditions: in vivo
[5] = Half life in mouse at 2 mg/kg, iv; type: ADME, organism-based; conditions: in vivo
[6] = Cmax in mouse at 10 mg/kg, po; type: ADME, organism-based; conditions: in vivo
[7] = Cmax in mouse at 2 mg/kg, iv; type: ADME, organism-based; conditions: in vivo
[8] = AUC (0 to t) in mouse at 10 mg/kg, po; type: ADME, organism-based; conditions: in vivo
[9] = AUC (0 to t) in mouse at 2 mg/kg, iv; type: ADME, organism-based; conditions: in vivo
[10] = AUC (0 to infinity) in mouse at 10 mg/kg, po; type: ADME, organism-based; conditions: in vivo
[11] = AUC (0 to infinity) in mouse at 2 mg/kg, iv; type: ADME, organism-based; conditions: in vivo
[12] = Volume of distribution at steady state in mouse at 2 mg/kg, iv; type: ADME, organism-based; conditions: in vivo, read-out: Vdss
[13] = Clearance in mouse at 2 mg/kg, iv; type: ADME, organism-based; conditions: in vivo
[14] = Oral bioavailability in mouse at 10 mg/kg; type: ADME, organism-based; conditions: in vivo
[15] = Metabolic stability in mouse liver microsomes assessed as half life; type: ADME, Microsome
[16] = Metabolic stability in mouse liver microsomes assessed as intrinsic clearance in hepatocytes measured per million cells; type: ADME, Microsome
[17] = Metabolic stability in mouse liver microsomes assessed as intrinsic clearance in liver; type: ADME, Microsome; conditions: read-out: CLH
[18] = Metabolic stability in rat liver microsomes assessed as half life; type: ADME, Microsome
[19] = Metabolic stability in rat liver microsomes assessed as intrinsic clearance in hepatocytes measured per million cells; type: ADME, Microsome
[20] = Metabolic stability in rat liver microsomes assessed as intrinsic clearance in liver; type: ADME, Microsome; conditions: read-out: CLH
[21] = Metabolic stability in dog liver microsomes assessed as half life; type: ADME, Canis lupus familiaris, Microsome
[22] = Metabolic stability in dog liver microsomes assessed as intrinsic clearance in hepatocytes measured per million cells; type: ADME, Canis lupus familiaris, Microsome
[23] = Metabolic stability in dog liver microsomes assessed as intrinsic clearance in liver; type: ADME, Canis lupus familiaris, Microsome; conditions: read-out: CLH
[24] = Metabolic stability in monkey liver microsomes assessed as half life; type: ADME, Macaca mulatta, Microsome; conditions: rhesus monkey
[25] = Metabolic stability in monkey liver microsomes assessed as intrinsic clearance in hepatocytes measured per million cells; type: ADME, Macaca mulatta, Microsome; conditions: rhesus monkey
[26] = Metabolic stability in monkey liver microsomes assessed as intrinsic clearance in liver; type: ADME, Macaca mulatta, Microsome; conditions: rhesus monkey, read-out: CLH
[27] = Metabolic stability in human liver microsomes assessed as half life; type: ADME, Microsome
[28] = Metabolic stability in human liver microsomes assessed as intrinsic clearance in hepatocytes measured per million cells; type: ADME, Microsome
[29] = Metabolic stability in human liver microsomes assessed as intrinsic clearance in liver; type: ADME, Microsome; conditions: read-out: CLH
[30] = Toxicity in mouse xenografted with human Pfeiffer cells harboring EZH2 A677G mutant assessed as body weight loss at 25 to 100 mg/kg, po qd for 28 days; type: organism-based; conditions: in vivo, 672 h, dose 25-100 mg/kg, time 28 day
[31] = Toxicity in mouse xenografted with human KARPAS-422 cells harboring EZH2 Y641N mutant assessed as body weight loss at 50 to 200 mg/kg, po bid for 28 days; type: organism-based; conditions: in vivo, 672 h, dose 50-200 mg/kg, time 28 day
[32] = system: Pfeiffer; test: Antitumor activity against human Pfeiffer cells harboring EZH2 A677G mutant xenografted in mouse assessed as reduction in tumor volume at 25 to 100 mg/kg, po qd for 28 days; type: functional; design: scale not given: the % may be the effect or the level left; conditions: dose 25-100 mg/kg, time 28 day
[33] = system: Pfeiffer; test: Antitumor activity against human Pfeiffer cells harboring EZH2 A677G mutant xenografted in mouse at 25 mg/kg, po qd for 28 days relative to control; type: functional; conditions: 672 h, time 28 day, read-out: TGI
[34] = system: Pfeiffer; test: Antitumor activity against human Pfeiffer cells harboring EZH2 A677G mutant xenografted in mouse at 50 mg/kg, po qd for 28 days relative to control; type: functional; conditions: 672 h, time 28 day, read-out: TGI
[35] = system: Pfeiffer; test: Antitumor activity against human Pfeiffer cells harboring EZH2 A677G mutant xenografted in mouse at 100 mg/kg, po qd for 28 days relative to control; type: functional; conditions: 672 h, time 28 day, read-out: TGI
[36] = system: KARPAS-422; test: Antitumor activity against human KARPAS-422 cells harboring EZH2 Y641N mutant xenografted in mouse assessed as reduction tumor volume at 50 to 200 mg/kg, po bid for 28 days relative to control; type: functional; design: scale not given: the % may be the effect or the level left; conditions: dose 50-200 mg/kg, time 28 day
[37] = system: KARPAS-422; test: Antitumor activity against human KARPAS-422 cells harboring EZH2 Y641N mutant xenografted in mouse at 50 mg/kg, po bid for 28 days relative to control; type: functional; conditions: KARPAS-422, 672 h, time 28 day, read-out: TGI
[38] = system: KARPAS-422; test: Antitumor activity against human KARPAS-422 cells harboring EZH2 Y641N mutant xenografted in mouse at 100 mg/kg, po bid for 28 days relative to control; type: functional; conditions: KARPAS-422, 672 h, time 28 day, read-out: TGI
[39] = system: KARPAS-422; test: Antitumor activity against human KARPAS-422 cells harboring EZH2 Y641N mutant xenografted in mouse at 200 mg/kg, po bid for 28 days relative to control; type: functional; conditions: KARPAS-422, 672 h, time 28 day, read-out: TGI
[40] = Drug concentration in human KARPAS-422 cells harboring EZH2 Y641N mutant xenografted in mouse at 100 mg/kg, po measured after 4 hrs; type: ADME, organism-based; conditions: KARPAS-422 xenograft tumour, read-out: Ct
[41] = Drug concentration in human KARPAS-422 cells harboring EZH2 Y641N mutant xenografted in mouse at 100 mg/kg, po measured after 8 hrs; type: ADME, organism-based; conditions: KARPAS-422 xenograft tumour, read-out: Ct
[42] = Toxicity in mouse xenografted with human Pfeiffer cells harboring EZH2 A677G mutant assessed as body weight loss at 100 mg/kg, po qd for 28 days; type: organism-based; conditions: in vivo, 672 h, time 28 day
[43] = Toxicity in mouse xenografted with human KARPAS-422 cells harboring EZH2 Y641N mutant assessed as body weight loss at 100 mg/kg, po bid for 28 days; type: organism-based; conditions: in vivo, 672 h, time 28 day

SMILES: CCN(c1cc(-c2ccc3c(c2)CCC3N2CCOCC2)cc(C(=O)NCc2c(C)cc(C)[nH]c2=O)c1C)C1CCOCC1 (stereo unspecified)
IC50 [1]: 2.36 nM
IC50 [2]: 1.73 nM
IC50 [3]: 1.82 nM
half-life [4]: 40.2 min
half-life [5]: 25.2 min
Cmax [6]: 1700 ng/mL
Cmax [7]: 2400 ng/mL
AUC(0-t) [8]: 2960 ng·h/mL
AUC(0-t) [9]: 1610 ng·h/mL
AUC(0-inf) [10]: 2970 ng·h/mL
AUC(0-inf) [11]: 1610 ng·h/mL
Vd [12]: 0.65 L/kg
clearance [13]: 20.7 mL/min/kg
bioavailability [14]: 36.9%
half-life [15]: 17.5 min
CLH [16]: 79.3 µL/min
CLint scaled [17]: 942 mL/min/kg
half-life [18]: 13.9 min
CLH [19]: 99.9 µL/min
CLint scaled [20]: 468 mL/min/kg
half-life [21]: 34.5 min
CLH [22]: 40.2 µL/min
CLint scaled [23]: 276 mL/min/kg
half-life [24]: 18.3 min
CLH [25]: 75.6 µL/min
CLint scaled [26]: 272 mL/min/kg
half-life [27]: 80.3 min
CLH [28]: 17.3 µL/min
CLint scaled [29]: 48 mL/min/kg
Activity [30]: Non-Toxic
Activity [31]: Non-Toxic
Activity [32]: 53.1%
inhibition in vivo at 25 mg/kg [33]: 53.1%
inhibition in vivo at 50 mg/kg [34]: 68.9%
inhibition in vivo at 100 mg/kg [35]: 100%
Activity [36]: 16%
inhibition in vivo at 50 mg/kg [37]: 16%
inhibition in vivo at 100 mg/kg [38]: 52.5%
inhibition in vivo at 200 mg/kg [39]: 98%
concentration at 4 h [40]: 8580 ng/mL
concentration at 8 h [41]: 9520 ng/mL

SMILES: CCN(c1cc(-c2ccc3c(c2)NC(=O)C32CCN(C)CC2)cc(C(=O)NCc2c(C)cc(C)[nH]c2=O)c1C)C1CCOCC1
IC50 [1]: 3.58 nM
IC50 [2]: 1.98 nM
IC50 [3]: 2.19 nM
half-life [5]: 37.2 min
Cmax [6]: 13.5 ng/mL
Cmax [7]: 3680 ng/mL
AUC(0-t) [8]: 3.4 ng·h/mL
AUC(0-t) [9]: 1230 ng·h/mL
AUC(0-inf) [10]: 3.4 ng·h/mL
AUC(0-inf) [11]: 1230 ng·h/mL
Vd [12]: 0.688 L/kg
clearance [13]: 27.9 mL/min/kg
bioavailability [14]: 0.06%

SMILES: CCN(c1cc(-c2ccc(CN3CCOCC3)cc2)cc(C(=O)NCc2c(C)cc(C)[nH]c2=O)c1C)C1CCOCC1 [TAZEMETOSTAT]
IC50 [1]: 6.44 nM
IC50 [2]: 2.26 nM
IC50 [3]: 3.86 nM
half-life [4]: 52.8 min
half-life [5]: 35.4 min
Cmax [6]: 1950 ng/mL
Cmax [7]: 2010 ng/mL
AUC(0-t) [8]: 4340 ng·h/mL
AUC(0-t) [9]: 2710 ng·h/mL
AUC(0-inf) [10]: 4370 ng·h/mL
AUC(0-inf) [11]: 2720 ng·h/mL
Vd [12]: 0.623 L/kg
clearance [13]: 12.4 mL/min/kg
bioavailability [14]: 32%
half-life [15]: 9.6 min
CLH [16]: 144.6 µL/min
CLint scaled [17]: 1720 mL/min/kg
half-life [18]: 18.7 min
CLH [19]: 74.1 µL/min
CLint scaled [20]: 347 mL/min/kg
half-life [21]: 20.8 min
CLH [22]: 66.5 µL/min
CLint scaled [23]: 458 mL/min/kg
half-life [24]: 21 min
CLH [25]: 65.9 µL/min
CLint scaled [26]: 237 mL/min/kg
half-life [27]: 58.7 min
CLH [28]: 23.6 µL/min
CLint scaled [29]: 65.7 mL/min/kg
Activity [42]: Non-Toxic
Activity [43]: Non-Toxic
inhibition in vivo at 100 mg/kg [35]: 71.9%
inhibition in vivo at 100 mg/kg [38]: 20.2%
concentration at 4 h [40]: 2340 ng/mL
concentration at 8 h [41]: 416 ng/mL

Second part, led by results:

IC50 [3]: 1.9 nM
half-life [4]: 10.8 min
half-life [5]: 10.8 min
Cmax [6]: 1280 ng/mL
Cmax [7]: 2790 ng/mL
AUC(0-t) [8]: 566 ng·h/mL
AUC(0-t) [9]: 949 ng·h/mL
AUC(0-inf) [10]: 570 ng·h/mL
AUC(0-inf) [11]: 955 ng·h/mL
Vd [12]: 0.565 L/kg
clearance [13]: 34.6 mL/min/kg
bioavailability [14]: 11.9%
SMILES: CCN(c1cc(-c2ccc3c(c2)N(C)CC32CCOCC2)cc(C(=O)NCc2c(C)cc(C)[nH]c2=O)c1C)C1CCOCC1
IC50 [1]: 1.9 nM
IC50 [2]: 1.01 nM

IC50 [3]: 1.79 nM
half-life [4]: 27.6 min
half-life [5]: 19.2 min
Cmax [6]: 1750 ng/mL
Cmax [7]: 2580 ng/mL
AUC(0-t) [8]: 1350 ng·h/mL
AUC(0-t) [9]: 818 ng·h/mL
AUC(0-inf) [10]: 1360 ng·h/mL
AUC(0-inf) [11]: 831 ng·h/mL
Vd [12]: 0.803 L/kg
clearance [13]: 43 mL/min/kg
bioavailability [14]: 33%
SMILES: CCN1C(=O)C2(CCOCC2)c2ccc(-c3cc(C(=O)NCc4c(C)cc(C)[nH]c4=O)c(C)c(N(CC)C4CCOCC4)c3)cc21
IC50 [1]: 2.38 nM
IC50 [2]: 0.49 nM

IC50 [3]: 0.98 nM
half-life [4]: 37.2 min
half-life [5]: 25.2 min
Cmax [6]: 152 ng/mL
Cmax [7]: 912 ng/mL
AUC(0-t) [8]: 122 ng·h/mL
AUC(0-t) [9]: 331 ng·h/mL
AUC(0-inf) [10]: 125 ng·h/mL
AUC(0-inf) [11]: 340 ng·h/mL
Vd [12]: 2.61 L/kg
clearance [13]: 99.7 mL/min/kg
bioavailability [14]: 7.4%
SMILES: CCN(c1cc(-c2ccc3c(c2)NC(=O)C32CCOCC2)cc(C(=O)NCc2c(C)cc(C)[nH]c2=O)c1C)C1CCOCC1
IC50 [1]: 1.34 nM
IC50 [2]: 0.56 nM
